Experimental data taken from US20250262186A1 (SANOFI, priority 2022, published 2025).
Counter-ions that a name gives are not always drawn.

molecular target: T1, ERα (Homo sapiens, UniProt P03372); assay: Estrogen receptor degradation activity: breast cancer cell ERα in cell western assay in MCF7 cells; format: cell-based; conditions: 0.3 μM, 4 hours, relative to fulvestrant 0.1 μM positive control
T1 construct: made using a breast cancer cell ERα in cell western assay; host or cells: MCF7
T1 sequence (P03372 1-595): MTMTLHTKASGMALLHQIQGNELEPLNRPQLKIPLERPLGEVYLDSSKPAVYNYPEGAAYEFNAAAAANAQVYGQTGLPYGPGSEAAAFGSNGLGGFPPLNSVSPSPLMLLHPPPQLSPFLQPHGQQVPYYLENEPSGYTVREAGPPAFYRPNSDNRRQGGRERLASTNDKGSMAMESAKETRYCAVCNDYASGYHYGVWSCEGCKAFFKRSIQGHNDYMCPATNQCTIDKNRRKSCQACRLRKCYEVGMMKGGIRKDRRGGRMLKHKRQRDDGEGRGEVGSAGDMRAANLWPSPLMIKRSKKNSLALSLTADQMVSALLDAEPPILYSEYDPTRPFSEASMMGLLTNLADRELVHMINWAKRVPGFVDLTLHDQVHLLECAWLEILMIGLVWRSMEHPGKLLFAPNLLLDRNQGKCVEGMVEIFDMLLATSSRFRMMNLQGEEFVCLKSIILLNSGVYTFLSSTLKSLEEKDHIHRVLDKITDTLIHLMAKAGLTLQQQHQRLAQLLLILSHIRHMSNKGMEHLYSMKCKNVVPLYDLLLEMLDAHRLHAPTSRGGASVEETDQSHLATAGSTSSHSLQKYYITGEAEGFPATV
Experimental: Said test involves measuring the in vitro degradation activity of the compounds of the Table 1a.
The measurements of the degradation activities were made using a breast cancer cell ERα in cell western assay as described hereunder.
MCF7 cells (ATCC) were seeded in 384 wells microplate (collagen coated) at a concentration of 10000 cells/30 μL per well in red phenol free MEM alpha medium (invitrogen) containing 5% charcoal dextran striped FBS. The following day, 9 points serial 1:5 dilution of each compound was added to the cells in 2.5 μL at final concentrations ranging from 0.3-0.0000018 μM (in table 2), or 0.1 μM for fulvestrant (using as positive control). At 4 hours post compound addition the cells were fixed by adding 25 μL of formalin (final concentration 5% formalin containing 0.1% triton) for 10 minutes at room temperature and then washed twice with PBS. Then, 50 μL of LI-COR blocking buffer containing 0.1% Triton was added to plate for 30 minutes at room temperature. LI-COR blocking buffer was removed and cells were incubated overnight at cold room with 50 μL anti-ER rabbit monoclonal antibody (Thermo scientific MA1-39540) diluted at 1:1000 in LI-COR blocking buffer containing 0.1% tween-20. Wells which were treated with blocking buffer but no antibody were used as background control. Wells were washed twice with PBS (0.1% tween-20) and incubated at 37° C. for 60 minutes in LI-COR (0.1% tween-20) containing goat anti-rabbit antibody Alexa 488 (1:1000) and Syto-64 a DNA dye (2 μM final concentration). Cells were then washed 3 times in PBS and scanned in ACUMEN explorer (TTP-Labtech). Integrated intensities in the green fluorescence and red fluorescence were measured to determine the levels of ERα and DNA respectively.
The degradation activity with respect to estrogen receptors in this test is given by the concentration which degrades 50% of the estrogen receptor (or IC50) in nM.
The % of ERα levels decrease were determined as follows: % inhibition=100*(1−(sample−fulvestrant: DMSO−fulvestrant)).

SMILES | % Degradation At 0.3 μM
O=C(O)c1ccc2c(c1)CCCC(c1cccc(F)c1Cl)=C2c1cccc(O[C@@H]2CCN(CCCF)C2)c1 [Compound 9, (R)-8-(2-chloro-3-fluorophenyl)-9-(3-((1-(3-fluoropropyl)pyrrolidin-3-yl)oxy)phenyl)-6,7-dihydro-5H-benzo[7]annulene-3-carboxylic acid] | 90%
CC1(C)CCC(C2=C(c3cccc(O[C@@H]4CCN(CCCF)C4)c3)c3ccc(C(=O)O)cc3CCC2)CC1.Cl [Compound 13, (R)-8-(4,4-dimethylcyclohexyl)-9-(3-((1-(3-fluoropropyl)pyrrolidin-3-yl)oxy)phenyl)-6,7-dihydro-5H-benzo[7]annulene-3-carboxylic acid, hydrochloride] | 57%
O=C(O)c1ccc2c(c1)CCCC(c1ccc(Cl)cc1F)=C2c1cccc(O[C@@H]2CCN(CCCF)C2)c1 [Compound 6, (R)-8-(4-chloro-2-fluorophenyl)-9-(3-((1-(3-fluoropropyl)pyrrolidin-3-yl)oxy)phenyl)-6,7-dihydro-5H-benzo[7]annulene-3-carboxylic acid] | 89%
O=C(O)c1ccc2c(c1)CCCC(C1CCCC1)=C2c1cccc(O[C@@H]2CCN(CCCF)C2)c1 [Compound 14, (R)-8-cyclopentyl-9-(3-((1-(3-fluoropropyl)pyrrolidin-3-yl)oxy)phenyl)-6,7-dihydro-5H-benzo[7]annulene-3-carboxylic acid] | 77%
CC1CCC(C2=C(c3cccc(OC4CCN(CCCF)C4)c3)c3ccc(C(=O)O)cc3CCC2)CC1 (single isomer, unassigned; isomer 1) [Compound 11] | 76%
Cl.O=C(O)c1ccc2c(c1)CCCC(c1ccccc1)=C2c1cccc(O[C@@H]2CCN(CCCF)C2)c1F [Compound 19, (R)-9-(2-fluoro-3-((1-(3-fluoropropyl)pyrrolidin-3-yl)oxy)phenyl)-8-phenyl-6,7-dihydro-5H-benzo[7]annulene-3-carboxylic acid, hydrochloride] | 82%
O=C(O)c1ccc2c(c1)CCCC(c1ccccc1)=C2c1cccc(O[C@@H]2CCN(CCCF)C2)c1 [Compound 2, (R)-9-(3-((1-(3-fluoropropyl)pyrrolidin-3-yl)oxy)phenyl)-8-phenyl-6,7-dihydro-5H-benzo[7]annulene-3-carboxylic acid] | 81%
Cc1c(O[C@@H]2CCN(CCCF)C2)cccc1C1=C(c2ccccc2Cl)CCCc2cc(C(=O)O)ccc21 [Compound 16, (R)-8-(2-chlorophenyl)-9-(3-((1-(3-fluoropropyl)pyrrolidin-3-yl)oxy)-2-methylphenyl)-6,7-dihydro-5H-benzo[7]annulene-3-carboxylic acid] | 97%
O=C(O)c1ccc2c(c1)CCCC(c1ccc(Cl)cc1Cl)=C2c1cccc(O[C@H]2CCN(CCCF)C2)c1 [Compound 1a, (S)-8-(2,4-dichlorophenyl)-9-(3-((1-(3-fluoropropyl)pyrrolidin-3-yl)oxy)phenyl)-6,7-dihydro-5H-benzo[7]annulene-3-carboxylic acid] | Inactive
CC1CCC(C2=C(c3cccc(OC4CCN(CCCF)C4)c3)c3ccc(C(=O)O)cc3CCC2)CC1 (single isomer, unassigned; isomer 2) [Compound 12] | 84%
O=C(O)c1ccc2c(c1)CCCC(c1ccc(F)cc1Cl)=C2c1cccc(O[C@@H]2CCN(CCCF)C2)c1 [Compound 5, (R)-8-(2-chloro-4-fluorophenyl)-9-(3-((1-(3-fluoropropyl)pyrrolidin-3-yl)oxy)phenyl)-6,7-dihydro-5H-benzo[7]annulene-3-carboxylic acid] | 91%
O=C(O)c1ccc2c(c1)CCCC(c1ccccc1)=C2c1cccc(O[C@H]2CCN(CCCF)C2)c1 [Compound 2a, (S)-9-(3-((1-(3-fluoropropyl)pyrrolidin-3-yl)oxy)phenyl)-8-phenyl-6,7-dihydro-5H-benzo[7]annulene-3-carboxylic acid] | Inactive

Second part, the molecule after the results:

% Degradation At 0.3 μM | SMILES
61% | Cc1ccc(O[C@@H]2CCN(CCCF)C2)cc1C1=C(c2ccc(Cl)cc2Cl)CCCc2cc(C(=O)O)ccc21 [Compound 24]
57% | Cl.O=C(O)c1ccc2c(c1)CCCC(c1ccccc1Cl)=C2c1cccc(OC2CN(CCCF)C2)c1 [Compound 29, 8-(2-chlorophenyl)-9-(3-((1-(3-fluoropropyl)azetidin-3-yl)oxy)phenyl)-6,7-dihydro-5H-benzo[7]annulene-3-carboxylic acid hydrochloride]
70% | O=C(O)c1ccc2c(c1)CCCC(c1ccc(Cl)cc1Cl)=C2c1cccc(NC2CN(CCCF)C2)c1 [Compound 32, 8-(2,4-dichlorophenyl)-9-(3-((1-(3-fluoropropyl)azetidin-3-yl)amino)phenyl)-6,7-dihydro-5H-benzo[7]annulene-3-carboxylic acid]
89% | Cl.O=C(O)c1ccc2c(c1)CCCC(c1ccc(Cl)cc1Cl)=C2c1cc(O[C@@H]2CCN(CCCF)C2)ccc1F [Compound 27, (R)-8-(2,4-dichlorophenyl)-9-(2-fluoro-5-((1-(3-fluoropropyl)pyrrolidin-3-yl)oxy)phenyl)-6,7-dihydro-5H-benzo[7]annulene-3-carboxylic acid hydrochloride]
90% | O=C(O)c1ccc2c(c1)CCCC(c1ccccc1Cl)=C2c1cc(O[C@@H]2CCN(CCCF)C2)ccc1F [Compound 26, (R)-8-(2-chlorophenyl)-9-(2-fluoro-5-((1-(3-fluoropropyl)pyrrolidin-3-yl)oxy)phenyl)-6,7-dihydro-5H-benzo[7]annulene-3-carboxylic acid, hydrochloride]
66% | FCCCN1CC[C@@H](Oc2cccc(C3=C(c4ccc(Cl)cc4Cl)CCCc4ccccc43)c2)C1 [Compound 38, (R)-3-(3-(8-(2,4-dichlorophenyl)-6,7-dihydro-5H-benzo[7]annulen-9-yl)phenoxy)-1-(3-fluoropropyl)pyrrolidine]
55% | Cl.O=C(O)c1ccc2c(c1)CCCC(c1ccc(Cl)cc1Cl)=C2c1cccc(OC2CN(CCCF)C2)c1 [Compound 30, 8-(2,4-dichlorophenyl)-9-(3-((1-(3-fluoropropyl)azetidin-3-yl)oxy)phenyl)-6,7-dihydro-5H-benzo[7]annulene-3-carboxylic acid hydrochloride]
79% | Cl.O=C(O)c1ccc2c(c1)CCCC(c1ccc(Cl)cc1Cl)=C2c1cccc(N[C@@H]2CCN(CCCF)C2)c1 [Compound 33, (R)-8-(2,4-dichlorophenyl)-9-(3-((1-(3-fluoropropyl)pyrrolidin-3-yl)amino)phenyl)-6,7-dihydro-5H-benzo[7]annulene-3-carboxylic acid hydrochloride]
88% | Cl.O=C(O)c1ccc2c(c1)CCCC(c1ccccc1Cl)=C2c1cccc(O[C@@H]2CCN(CCCF)C2)c1F [Compound 20, (R)-8-(2-chlorophenyl)-9-(2-fluoro-3-((1-(3-fluoropropyl)pyrrolidin-3-yl)oxy)phenyl)-6,7-dihydro-5H-benzo[7]annulene-3-carboxylic acid, hydrochloride]

same assay, conditions: text statement on comparative compounds

degradation activity for estrogen receptors (in words) | SMILES
inactive | O=C(O)c1ccc2c(c1)CCCC(c1ccc(Cl)cc1Cl)=C2c1cccc(O[C@H]2CCN(CCCF)C2)c1 [Compound 1a, (S)-8-(2,4-dichlorophenyl)-9-(3-((1-(3-fluoropropyl)pyrrolidin-3-yl)oxy)phenyl)-6,7-dihydro-5H-benzo[7]annulene-3-carboxylic acid]
inactive | O=C(O)c1ccc2c(c1)CCCC(c1ccccc1)=C2c1cccc(O[C@H]2CCN(CCCF)C2)c1 [Compound 2a, (S)-9-(3-((1-(3-fluoropropyl)pyrrolidin-3-yl)oxy)phenyl)-8-phenyl-6,7-dihydro-5H-benzo[7]annulene-3-carboxylic acid]
